Values joined by “and” are separate entries in the source; they are usually repeats but may differ in a detail not shown here. Identical values can stand only once. “Also recorded” adds a separate entry of the source. Like-named read-outs stand apart in the source and are kept apart here.
Legend:
Tdp1 = Tdp1 (Homo sapiens, UniProt Q9NUW8); assay: Tdp1 activity, real-time fluorescence oligonucleotide biosensor (FAM/BHQ1) assay; format: biochemical
From the text: An oligonucleotide real-time biosensor was used based on the ability of Tdp1 to remove fluorophore quenchers from the 3′-end of DNA, as previously described. The hexadecameric oligonucleotide carried 5(6)-carboxyfluorescein (FAM) at the 5′-end and the fluorophore quencher BHQ1 (Black Hole Quencher-1) at the 3′-end. Tdp1 inhibitors prevent removal of fluorophore quenchers, thus reducing fluorescence intensity.
The methodology has been reported in our previous work and consists of fluorescence intensity measurement in a reaction of quencher removal from a fluorophore quencher-coupled DNA oligonucleotide catalyzed by Tdp1. The reaction was carried out at different concentrations of inhibitors (the control samples contained 1% of DMSO, Sigma, St. Louis, MO, USA). The reaction mixtures contained Tdp1 buffer (50 mM Tris-HCl pH 8.0, 50 mM NaCl, and 7 mM β-mercaptoethanol), 50 nM biosensor, and an inhibitor being tested. Purified Tdp1 (1.5 nM) triggered the reaction. The biosensor (5′-[FAM] AAC GTC AGGGTC TTC C [BHQ]-3′) was synthesized in the Laboratory of Biomedical Chemistry at the Institute of Chemical Biology and Fundamental Medicine (Novosibirsk, Russia).
The reactions were incubated on a POLARstar OPTIMA fluorimeter (BMG LABTECH, GmbH, Ortenberg, Germany) to measure fluorescence every 55 s (ex. 485/em. 520 nm) during the linear phase (here, data from minute 0 to minute 8). The values of IC50 were determined using a six-point concentration response curve in minimum three independent experiments and were calculated using MARS Data Analysis 2.0 (BMG LABTECH, GmbH, Ortenberg, Germany).

[1] = Intrinsic cytotoxicity, EZ4U cell proliferation and cytotoxicity assay; format: cell-based, human; conditions: human, HeLa cells, compound alone, 3 days, read-out: CC50 (half maximal cytotoxic concentration)
From the text: (§1) Top1 poisons are used as anticancer drugs for the treatment for various oncological diseases. Since Tdp1 is involved in the removal of DNA damage caused by Top1 poisons, the activity of Tdp1 can lead to the development of drug resistance. Thus, it is believed that Tdp1 inhibition can enhance the efficacy of Top1 poisons. Tdp1 inhibitors should have the lowest possible intrinsic toxicity to minimize potential side effects. Therefore, we studied the intrinsic cytotoxicity of the compounds against HeLa cells (cervical carcinoma). EZ4U cell proliferation and cytotoxicity assay results are shown in Figure 4 for the ligands with Tdp1 inhibitory activity.
(§2) The cell culture was monitored for 3 days.

HeLa cells [2] = assay: cells; conditions: for effect of topotecan on the cytotoxicity of the Tdp1 inhibitor (in words): Mann–Whitney U-test; for CC50: Homo sapiens, HeLa
Experimental: For comparison, the concentration of the inhibitors was increased to 20 μM.
Cytotoxicity of the compounds to HeLa (human cervical cancer) cell line was examined using the EZ4U Cell Proliferation and Cytotoxicity Assay (Biomedica, Vienna, Austria), according to the manufacturer’s protocols. The cells were grown in Iscove’s modified Dulbecco’s medium (IMDM) with 40 μg/mL gentamicin, 50 IU/mL penicillin, 50 μg/mL streptomycin (MP Biomedicals, Santa Ana, CA, USA), and 10% of fetal bovine serum (Biolot, St. Petersburg, Russia) in a 5% CO2 atmosphere. After formation of a 30–50%-monolayer, the tested compounds were added to the medium. The volume of the added reagents was 1/100 of the total volume of the culture medium, and the amount of DMSO (Sigma, St. Louis, MO, USA) was 1% of the final volume. Control cells were grown in the presence of 1% DMSO. The cell culture was monitored for 3 days. To assess the influence of the inhibitors on the cytotoxic effect of topotecan (ACTAVIS GROUP PTC ehf., Bucharest, Romania), 50% cytotoxic concentrations of topotecan and of each inhibitor were determined to attain a defined single-agent effect. Then, minimum two independent tests were performed with each inhibitor in combination with topotecan. When using a combination of drugs, Tdp1 inhibitors were first added, then topotecan was added immediately (within 10–15 min).

HeLa cells [3] = assay: Intrinsic cytotoxicity, EZ4U cell proliferation and cytotoxicity assay; format: cell-based, human; conditions: for Intrinsic toxicity to HeLa cells (in words): without topotecan; for CC50: compound alone, 3 days, read-out: CC50 (half maximal cytotoxic concentration)
From the text: as §1, §2

[4] = purified Tdp1 1.5 nM, 50 nM biosensor, read-out: IC50 (Tdp1 inhibiting activity)
[5] = Tdp1, values of supplementary Table S1 (less rounded), read-out: IC50 (µM), Table S1

Chain of Tdp1 (Q9NUW8 whole entry): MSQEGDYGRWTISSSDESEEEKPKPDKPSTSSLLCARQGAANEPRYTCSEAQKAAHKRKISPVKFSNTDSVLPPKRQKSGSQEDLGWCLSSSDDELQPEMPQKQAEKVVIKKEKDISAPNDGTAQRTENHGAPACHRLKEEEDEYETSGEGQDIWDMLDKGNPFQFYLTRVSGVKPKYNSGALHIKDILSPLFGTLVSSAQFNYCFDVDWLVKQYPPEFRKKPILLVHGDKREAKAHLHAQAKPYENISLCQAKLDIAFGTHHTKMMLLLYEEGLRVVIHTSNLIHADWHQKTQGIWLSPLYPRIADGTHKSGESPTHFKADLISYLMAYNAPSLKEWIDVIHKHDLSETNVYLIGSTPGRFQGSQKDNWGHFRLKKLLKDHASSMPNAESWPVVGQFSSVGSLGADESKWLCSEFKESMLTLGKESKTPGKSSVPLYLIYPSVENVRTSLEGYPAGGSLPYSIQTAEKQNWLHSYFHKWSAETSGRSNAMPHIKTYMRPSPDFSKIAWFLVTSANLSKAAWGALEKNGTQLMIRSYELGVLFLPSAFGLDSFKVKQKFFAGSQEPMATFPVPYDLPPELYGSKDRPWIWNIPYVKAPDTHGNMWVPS

| SMILES | IC50 (Tdp1; [4]) | IC50 (Tdp1; [5]) | CC50 at 3 days [1] | effect of topotecan on the cytotoxicity of the Tdp1 inhibitor (in words) (HeLa cells [2]; HeLa cells, 2 μM topotecan) | other results |
| --- | --- | --- | --- | --- | --- |
| CCCCS(=O)(=O)Oc1c(OC)ccc2c1CN1CCc3cc4c(cc3C1C2)OCO4 (stereo not shown) [11d] | > 15 µM |  |  |  |  |
| COc1cc(Br)c2c(c1OS(=O)(=O)c1c(F)c(F)cc(F)c1F)CN1CCc3cc4c(cc3C1C2)OCO4 (stereo not shown) [12g] | 1.3 ± 0.3 µM | 1.33 ± 0.28 µM | 95 ± 5 µM | significantly increased | sensitizing effect on the cytotoxicity of topotecan (in words) (HeLa cells [2]; HeLa cells): doubled; also recorded: significant effect; also recorded: pronounced sensitizing effect; also recorded: sensitized the cancer cells to topotecan |
| COc1ccc2cc3[n+](cc2c1OS(C)(=O)=O)CCc1cc2c(cc1-3)OCO2 [10a, 10-Methoxy-9-methanesulfonyloxy-2,3-methylenedioxyprotoberberine chloride] | > 15 µM |  |  |  |  |
| CCCS(=O)(=O)Oc1c(OC)ccc2c1CN1CCc3cc4c(cc3C1C2)OCO4 (stereo not shown) [11c] | > 15 µM |  |  |  |  |
| COc1ccc2c(c1OS(=O)(=O)c1ccc(C)cc1)CN1CCc3cc4c(cc3C1C2)OCO4 (stereo not shown) [11e] | > 15 µM |  |  |  | Tdp1 inhibitory activity (in words) (Tdp1): inactive |
| COc1cc(Br)c2c(c1OS(=O)(=O)c1ccc(C)cc1)CN1CCc3cc4c(cc3C1C2)OCO4 (stereo not shown) [12e] | > 15 µM |  |  |  | Tdp1 inhibitory activity (in words) (Tdp1): inactive |
| CCCCS(=O)(=O)Oc1c(OC)cc(Br)c2c1CN1CCc3cc4c(cc3C1C2)OCO4 (stereo not shown) [12d] | 4 ± 1 µM | 4.06 ± 1.05 µM | > 100 µM | negligible or unreliable | Intrinsic toxicity to HeLa cells (in words) (HeLa cells [3]): non-toxic up to 100 μM |
| CCS(=O)(=O)Oc1c(OC)cc(Br)c2c1CN1CCc3cc4c(cc3C1C2)OCO4 (stereo not shown) [12b] | > 15 µM |  |  |  |  |
| CCS(=O)(=O)Oc1c(OC)ccc2cc3[n+](cc12)CCc1cc2c(cc1-3)OCO2 [10b, 9-Ethanesulfonyloxy-10-methoxy-2,3-methylenedioxyprotoberberine chloride] | > 15 µM |  |  |  |  |
| COc1ccc2c(c1OS(=O)(=O)c1c(F)c(F)c(F)c(F)c1F)CN1CCc3cc4c(cc3C1C2)OCO4 (stereo not shown) [11f] | ~1 µM and 1 µM | 0.98 ± 0.2 µM | 10 µM | significantly increased | cell death (HeLa cells [3]; 5 μM): 20%; cells that die (HeLa cells [3]; 20 μM): 90%; CC50 (HeLa cells [3]): 11 ± 2 µM; decrease of CC50 in the presence of topotecan (fold) (HeLa cells [2]; HeLa cells, 2 μM topotecan): three fold |
| COc1ccc2c(c1OS(C)(=O)=O)CN1CCc3cc4c(cc3C1C2)OCO4 (stereo not shown) [11a] | > 15 µM |  |  |  |  |
| COc1cc(Br)c2c(c1OS(C)(=O)=O)CN1CCc3cc4c(cc3C1C2)OCO4 (stereo not shown) [12a] | > 15 µM |  |  |  |  |
| COc1ccc2c(c1OS(=O)(=O)c1c(F)c(F)cc(F)c1F)CN1CCc3cc4c(cc3C1C2)OCO4 (stereo not shown) [11g] | 1.05 ± 0.05 µM | 1.05 ± 0.05 µM | > 100 µM | significantly increased | living cells (HeLa cells [3]; 100 μM maximum concentration): 100%; Intrinsic toxicity to HeLa cells (in words) (HeLa cells [3]): low toxicity; also recorded: nontoxic; sensitizing effect on the cytotoxicity of topotecan (in words) (HeLa cells [2]; HeLa cells): doubled; also recorded: significant effect; also recorded: pronounced sensitizing effect; also recorded: sensitized the cancer cells to topotecan; decrease in cell survival in the presence of topotecan (HeLa cells [2]; HeLa cells, 2 μM topotecan, at all inhibitor concentrations): ~ 30% |
| CC[C@@]1(O)C(=O)OCc2c1cc1n(c2=O)Cc2cc3c(CN(C)C)c(O)ccc3nc2-1 [topotecan, reference compound] |  |  | 2 µM |  | CC50 (HeLa cells [2]; read-out: CC50, μM–5 μM Tdp1 inhibitor (cytotoxic potential of topotecan)): 6.8 ± 1.1 µM; CC50 (HeLa cells [2]; read-out: CC50, μM–20 μM Tdp1 inhibitor (cytotoxic potential of topotecan)): 6.8 ± 1.1 µM |
| COc1ccc2cc3[n+](cc2c1OC)CCc1cc2c(cc1-3)OCO2 [compound 9, berberine] |  | > 15 µM |  |  |  |
| CCCCS(=O)(=O)Oc1c(OC)ccc2cc3[n+](cc12)CCc1cc2c(cc1-3)OCO2 [10d, 9-(Butane-1-sulfonyl)oxy-10-methoxy-2,3-methylenedioxy protoberberine chloride] | > 15 µM |  |  |  |  |
| COc1cc(Br)c2c(c1OS(=O)(=O)c1c(F)c(F)c(C(F)(F)F)c(F)c1F)CN1CCc3cc4c(cc3C1C2)OCO4 (stereo not shown) [12h] | 1.4 ± 0.3 µM | 1.38 ± 0.3 µM | 2.2 ± 1.5 µM | negligible or unreliable |  |
| CCS(=O)(=O)Oc1c(OC)ccc2c1CN1CCc3cc4c(cc3C1C2)OCO4 (stereo not shown) [11b] | > 15 µM |  |  |  |  |
| CCCS(=O)(=O)Oc1c(OC)ccc2cc3[n+](cc12)CCc1cc2c(cc1-3)OCO2 [10c, 10-Methoxy-2,3-methylenedioxy-9-((propane-1-sulfonyl)oxy)protoberberine chloride] | > 15 µM |  |  |  |  |
| COc1ccc2c(c1OS(=O)(=O)c1c(F)c(F)c(C(F)(F)F)c(F)c1F)CN1CCc3cc4c(cc3C1C2)OCO4 (stereo not shown) [11h] | 0.9 ± 0.2 µM | 0.93 ± 0.22 µM | 2.6 ± 0.1 µM | negligible or unreliable |  |
| COc1cc(Br)c2c(c1OS(=O)(=O)c1c(F)c(F)c(F)c(F)c1F)CN1CCc3cc4c(cc3C1C2)OCO4 (stereo not shown) [12f] | 0.53 ± 0.01 µM |  | 10 µM | negligible or unreliable | CC50 (HeLa cells [3]): 9.9 ± 4.5 µM |
| CCCS(=O)(=O)Oc1c(OC)cc(Br)c2c1CN1CCc3cc4c(cc3C1C2)OCO4 (stereo not shown) [12c] | 2.9 ± 1.3 µM | 2.86 ± 1.25 µM | > 100 µM | negligible or unreliable | Intrinsic toxicity to HeLa cells (in words) (HeLa cells [3]): non-toxic up to 100 μM |
